In paper PMC3908613 (Bioscience Reports, 2014):

Experiments:
[1] = tested on: BMDC; assay: Cytokine production by LPS-stimulated BMDC (ELISA); type: cell-based, C57BL/6 mice; conditions: LPS 50 ng/ml, 18 h; for production of TNFα, IL6 and IL10: in the presence of both PD184352 (2 μM) and BIRB0796 (0.1 μM)
Description: DCs were generated from the bone marrow or the spleen of C57BL/6 mice as previously described. Briefly, bone marrow cells were cultured for 7 days at 37°C, 5% (v/v) CO2 in complete RPMI medium supplemented with 10 ng/ml recombinant granulocyte-macrophage colony-stimulating factor (GM-CSF; Peprotech). Spleen cells were cultured for 14 days at 37°C, 5% CO2 in complete RPMI containing 10 ng/ml GM-CSF and 1 ng/ml TGFβ (transforming growth factor-β; R&D Systems). NIH3T3 cells (European Cell Culture Collection) were cultured in DMEM (Dulbecco's modified Eagle's medium) supplemented with glutamine, penicillin, streptomycin and 10% (v/v) calf serum (Invitrogen). […] The amounts of TNFα (tumour necrosis factor α), IL6 (interleukin 6) and IL10 in the supernatant were measured using ELISA kits specific for each cytokine (TNFα, IL6; Peprotech, IL10; R&D Systems).

[2] = tested on: p38; assay: Desthiobiotin-ATP probe capture on streptavidin beads, Western blot; type: binding, C57BL/6 mice; conditions: 10 μM inhibitor, DC lysate
Description: (§1) SDC were cultured for at least 14 days in RPMI (without arginine and lysine, custom-made by Biosera) containing 10% dialysed FCS (Hyclone) supplemented with 84 mg/l of L-arginine (Sigma) and 40 mg/l L-lysine (Sigma) for the 'light' medium or 84 mg/l of […] or ^13C10 and 40 mg/l […] (Cambridge Isotope Laboratory) for the 'heavy' medium. Equal numbers (2×10^7) of 'light' or 'heavy' labelled SDCs were incubated in RPMI containing 0.5% FCS for 3 h in 15 cm dishes. The cells were lysed in the lysis buffer provided in the kit (Pierce). […] Labelling with the desthiobiotin ATP probe, and precipitation with streptavidin beads were performed according to the manufacturer's instructions (Pierce kinase enrichment kit or ActivXTM).

[3] = molecular target: T1, Erk1/2 (Mus musculus, UniProt P63085); assay: as above; type: binding, C57BL/6 mice; conditions: 10 μM inhibitor, DC lysate
T1 construct: recovered on streptavidin beads following desthiobiotin-ATP labelling of DC lysates including Rsk2, Erk1/2 and p38; endogenous in cells; host or cells: mouse spleen-derived dendritic cells (SDC), lysate
Description: as §1

[4] = molecular target: T2, PLK1 (Mus musculus, UniProt Q07832); assay: as above; type: binding, C57BL/6 mice; conditions: 10 μM inhibitor, DC lysate
T2 construct: endogenous in cells; host or cells: mouse spleen-derived dendritic cells (SDC), lysate
Description: SDC were cultured for at least 14 days in RPMI (without arginine and lysine, custom-made by Biosera) containing 10% dialysed FCS (Hyclone) supplemented with 84 mg/l of L-arginine (Sigma) and 40 mg/l L-lysine (Sigma) for the ‘light’ medium or 84 mg/l of L-arginine ^13C6 or ^13C10 and 40 mg/l L-lysine ^13C6 (Cambridge Isotope Laboratory) for the ‘heavy’ medium. Equal numbers (2×10^7) of ‘light’ or ‘heavy’ labelled SDCs were incubated in RPMI containing 0.5% FCS for 3 h in 15 cm dishes. The cells were lysed in the lysis buffer provided in the kit (Pierce). […] Labelling with the desthiobiotin ATP probe, and precipitation with streptavidin beads were performed according to the manufacturer's instructions (Pierce kinase enrichment kit or ActivX™). Equal amount of streptavidin precipitates were separated by electrophoresis as described above and probed with antibodies against Rsk2, Lok (Bethyl), Slk (Bethyl), PLK1 (Calbiochem), p38, Erk2 and Mst1 (from Cell Signaling).

[5] = tested on: BMDC; assay: Immunoblot of phosphorylated signalling proteins in stimulated BMDC; type: cell-based, C57BL/6 mice; conditions: 30 min
Description: BMDC (1.5×10^6 cells) were incubated in 6-well plates in RPMI supplemented with 0.3% FCS for 5 h at 37°C. […] NIH3T3 cells (2×10^4) were plated in 6-well plates for 48 h at 37°C. The cells were deprived of serum for 8 h in DMEM supplemented with 2 mg/ml BSA (Sigma) and then stimulated with 100 ng/ml EGF (epidermal growth factor; Peprotech) for 5 min at 37°C.
Cells were washed in cold PBS, lysed on ice for 10 min in lysis buffer (1% Triton X-100 containing 50 mM Tris–HCl (pH 7.5), 150 mM NaCl, 1 mM EGTA, 1 mM EDTA, 10 mM NaF, 1 mM sodium orthovanadate and 5 mM sodium pyrophosphate and protease inhibitors (Roche)) and centrifuged for 10 min at 20000 g at 4°C.
BMDC (5×10^6 cells) were stimulated as described above. Lysates were pre-cleared with protein G Sepharose beads (Roche) for 30 min at 4°C. Paxillin was immunoprecipitated with 2 μg of anti-paxillin (Millipore) or with anti-IgG antibodies (Santa Cruz Biotechnology) for 1 h at 4°C and then incubated with 15 μl protein G Sepharose beads for 1 h at 4°C. Beads were washed four times with lysis buffer and paxillin was eluted with NuPage sample buffer (Invitrogen). The immunoprecipitated proteins were separated by electrophoresis on a 10% (w/v) NuPage gel and transferred onto a nitrocellulose membrane. The membrane was probed with anti-phospho Ser250-paxilin (kind gift of Luc Sabourin, McMaster University, Canada) or anti-paxillin antibodies.

[6] = tested on: panel of more than 200 kinases; parameters: method as in PMID 22056746; conditions: cited from earlier work
[7] = tested on: DC; assay: Actin cytoskeleton organisation in DC (confocal microscopy); type: cell-based, C57BL/6 mice; conditions: 4 μM D1870 or 2 μM BIX, 1h30 at 37°C
Description: 2 μMBIXfor1h30at37◦ C. Cells were ﬁxed in 4 % (v/v) paraformalde-hyde for 15 min, permeabilized with 0.1 % Triton for 5 min and stained with phalloidin-Alexa 555 (Invitrogen) and anti-vinculin antibody (Sigma) followed by goat anti-mouse Alexa 488 antibody (invitrogen). Cells were analysed on a Zeiss700 confocal microscope. V inculin (green) and phal-loidin (red). Error bar 10 μm. Images are representative of three inde- […]
© 2014 The Author(s) This is an Open Access ar ticle distributed under the terms of the Creative Commons Attribution Licence (CC-BY) (http://creativecommons.org/licenses/by/3.0/)c which permits unrestricted use, distribution and reproduction in any medium, provided the original work is properly cited.
(1 picture or pasted object on this page, not shown here)

[8] = tested on: BMDC; assay: FITC-dextran uptake (macropinocytosis) by BMDC; type: cell-based, C57BL/6 mice; conditions: LPS 50 ng/ml, FITC-dextran 1 mg/ml, increasing concentrations
Description: DCs were generated from the bone marrow or the spleen of C57BL/6 mice as previously described. Briefly, bone marrow cells were cultured for 7 days at 37°C, 5% (v/v) CO2 in complete RPMI medium supplemented with 10 ng/ml recombinant granulocyte–macrophage colony-stimulating factor (GM-CSF; Peprotech). Spleen cells were cultured for 14 days at 37°C, 5% CO2 in complete RPMI containing 10 ng/ml GM-CSF and 1 ng/ml TGFβ (transforming growth factor-β; R&D Systems). NIH3T3 cells (European Cell Culture Collection) were cultured in DMEM (Dulbecco's modified Eagle's medium) supplemented with glutamine, penicillin, streptomycin and 10% (v/v) calf serum (Invitrogen).
FITC-dextran uptake was measured as described. […] In some experiments, cells were pre-treated with 1 μM Akt-i (Merck) for 30 min. Cells were left unstimulated or were stimulated with 50 ng/ml LPS for 20 min at 37°C followed by the addition of 1 mg/ml FITC dextran (Invitrogen) for 10 min at 37°C. Cells were washed four times at 4°C in PBS supplemented with 2% (v/v) FCS (foetal calf serum) and then stained with APC (allophycocyanin)-labelled anti-CD11c antibody (BD biosciences). FITC dextran uptake was measured on an FACS Calibur (BD biosciences).

[9] = tested on: RSK; parameters: method as in PMID 22056746; conditions: read-out: in vitro IC50 RSK; cited from earlier work
[10] = increasing concentrations of inhibitor

T1 sequence (P63085 2-358): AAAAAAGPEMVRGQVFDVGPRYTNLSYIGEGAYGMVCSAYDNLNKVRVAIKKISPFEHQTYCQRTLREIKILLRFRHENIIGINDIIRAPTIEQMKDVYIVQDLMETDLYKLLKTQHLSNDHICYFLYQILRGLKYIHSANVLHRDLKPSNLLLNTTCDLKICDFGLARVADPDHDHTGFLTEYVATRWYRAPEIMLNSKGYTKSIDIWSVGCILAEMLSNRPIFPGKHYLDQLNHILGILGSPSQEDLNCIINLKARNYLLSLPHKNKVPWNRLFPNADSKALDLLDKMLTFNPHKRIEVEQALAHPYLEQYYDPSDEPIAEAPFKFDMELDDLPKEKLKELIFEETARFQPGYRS
T2 sequence (Q07832 whole entry): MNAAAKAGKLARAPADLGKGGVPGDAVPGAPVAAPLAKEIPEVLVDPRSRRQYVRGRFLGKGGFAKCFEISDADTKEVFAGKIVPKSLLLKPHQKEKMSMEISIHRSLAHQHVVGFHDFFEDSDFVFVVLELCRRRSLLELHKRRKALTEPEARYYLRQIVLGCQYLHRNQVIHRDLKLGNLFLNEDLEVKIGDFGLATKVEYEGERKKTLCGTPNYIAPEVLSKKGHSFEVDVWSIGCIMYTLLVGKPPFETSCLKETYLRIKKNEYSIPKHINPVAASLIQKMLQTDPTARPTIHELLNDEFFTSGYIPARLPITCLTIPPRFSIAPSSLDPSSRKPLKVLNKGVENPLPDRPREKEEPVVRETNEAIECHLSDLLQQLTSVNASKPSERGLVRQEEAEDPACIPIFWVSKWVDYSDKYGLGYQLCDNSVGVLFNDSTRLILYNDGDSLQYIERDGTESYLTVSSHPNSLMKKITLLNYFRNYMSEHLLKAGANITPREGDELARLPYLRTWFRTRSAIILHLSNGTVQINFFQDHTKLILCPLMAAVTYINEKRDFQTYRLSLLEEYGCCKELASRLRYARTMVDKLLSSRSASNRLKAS

Cc1ccc(-n2nc(C(C)(C)C)cc2NC(=O)Nc2ccc(OCCN3CCOCC3)c3ccccc23)cc1 [BIRB0796]
production of TNFα, IL6 and IL10 [1]: blocked

C[C@@H]1CCNC(=O)c2cc3ccc(C(=O)Nc4nc5ccccc5n4CCCN(C)C)cc3n21 [BIX, BIX02565]
capture of p38 on streptavidin beads [2]: not Erk1/2 or p38, was blocked | capture of Erk1/2 on streptavidin beads [3]: not Erk1/2 or p38, was blocked | Recovery of PLK1 on streptavidin beads [4]: not affected | IL6 secretion [1, 10]: only partially blocked | IL10 secretion [1, 10]: only partially blocked | TNFα production [1, 10]: partially blocked | Erk1/2, p38 or JNK1/2 phosphorylation ([5]; LPS 50 ng/ml): Neither inhibitor had any effect | GSK3α/β phosphorylation ([5]; LPS 50 ng/ml): blocked | PKB phosphorylation at Ser473 and Thr308 ([5]; LPS 50 ng/ml): increased | Phosphorylation of MSK1 and MK2 ([5]; LPS 50 ng/ml): not affected | phosphorylation of IκBα ([5]; LPS 50 ng/ml): neither D1870 nor BIX affected | phosphorylation of paxillin on Ser250 ([5]; LPS, paxillin immunoprecipitated): little effect | Higher levels of BIX at which a few other kinases were affected [6]: ~ 20 fold | morphological changes in resting DC (cell spreading, focal adhesion, loss of podosomes) [7]: not observed | Block of TLR stimulated macropinocytosis [8]: ~ 20% | IC50 [9]: 1 to 2 nM

O=C(NOCC1CC1)c1ccc(F)c(F)c1Nc1ccc(I)cc1Cl [PD184352]
production of TNFα, IL6 and IL10 [1]: blocked
